Source: patent US4357344A, “Polybutylbenzylphenols and benzyl-3,4-methylenedioxybenzenes in insect population control” (The United States of America as represented by the …, priority 1979, dated 1982)

Assays:
Solubility in water = type: physicochemical
[1] = tested on: early fourth-stage larvae of the common malaria mosquito (Anopheles quadrimaculatus); experiment: Growth-inhibition tests on mosquito larvae; type: in vivo; settings: in water; corrected by Abbott's formula
Experimental: The compound to be tested was added to one liter of water until the final concentration thereof was a growth-inhibiting amount. Fifty early fourth-stage larvae of the common malaria mosquito (Anopheles quadrimaculatus) were placed on this water. Larval food was administered daily. Dead larvae and pupae were removed, counted, and discarded daily. Live pupae were removed, rinsed, and transferred to a cup of distilled water. The cup was placed in an emergence cage, and the emerging adults, if any, were maintained on a sugar-water diet.
The effectiveness of the compound in inhibiting growth was determined by adding the number of dead larvae and pupae and the number of adults that were dead, unable to complete eclosion, and malformed. This sum was corrected by Abbott's formula (to adjust for the number of larvae or pupae which would die naturally) and designated as the GI (growth inhibition). The results are expressed as GI-90, i.e., the concentration of growth inhibitor in ppm that would prevent and/or retard growth in 90% of the treated larvae.

screwworm flies = experiment: Anti-procreant tests on screw-worm fly; type: in vivo
Experimental: These tests were conducted on mass-reared screwworm flies which had been obtained as pupae from the screwworm fly plant at Mission, Texas. The flies were held in cages with water and undiluted corn syrup in a colony room maintained at about 27° C. and 60% relative humidity (RH) with a 12-hour photoperiod beginning at 6 a.m. Adults that emerged were lightly anesthetized with CO2 for ease of manipulation the same day.
The mixtures obtained were fed to the flies in "Dixie" paper cups, 7 cm diameter, and rice hulls were placed on the surface of the food to prevent the flies from getting stuck in the viscous mixture.
Initially, varying concentrations of a chemosterilant were fed to the flies for the first 5 days of life. Thereafter, the chemosterilant was replaced with pure corn syrup. On the 7th day, 3 replicates of 10 flies were stimulated to oviposit and the flies which oviposited were checked for insemination by an examination of the spermathecae for live sperms. The total number of eggs per fly was estimated and the hatchability of these eggs (fertility) was determined 24 hours later (at 37° C.). Observations were made to determine percentage of egg hatch.

mice = experiment: Oral toxicity in mice; settings: mouse, in vivo, po
Experimental: (§1) Compounds D, A, and B were also assayed for oral toxicity in mice.

Oral toxicity in mice = settings: mouse, in vivo; oral, mice; read-out: Estimated LD50
Experimental: as §1

flies (family Muscidae) [2] = experiment: Oviposition inhibition tests (treated fly food; Examples 6-9); type: in vivo
Experimental: The compound to be tested was administered in a standard fly food containing 6 parts of sugar, 6 parts of powdered non-fat dry milk, and 1 part of powdered egg yolk. Treated food was prepared by mixing an appropriate amount of a solution or suspension of CBCP in acetone with a batch of the food. The acetone was evaporated (4-6 hours) and the dry material was repulverized. Oviposition inhibition tests: Samples of treated food with a container of water were placed in cages containing 100 newly-emerged adult flies (family Muscidae). After the flies had been exposed to the treated diet for 6-7 days, 1/2 inch of moist standard fly larva-rearing medium (CSMA) in souffle cups was placed in the cages for oviposition. After 4-6 hours, the cup was removed and examined for eggs. […] The procedure outlined in Example 6 was followed using a Group II compound. The procedure outlined in Example 6 was followed using Group III compounds. The results are summarized below: The procedure outlined in Example 6 was followed substituting a Group IV compound for those of Group I. The table below provides a summary of results.

[3] = tested on: Salmonella tester strains TA-100, TA-98, TA-1537; experiment: Ames' Salmonella/microsome mutagenicity procedure; settings: TA-100, TA-98, TA-1537; without or with metabolic activation
Experimental: The mutagenic activity of D, A, B, M, N, and CC were tested by the standard Ames' Salmonella/microsome procedure, which is reported to show better than 90% correlation with development of mammalian cancers (Ames et al., Mutation Research, Vol. 31, p. 347, 1975; McCann et al., Proc. Nat. Acad. Sci., Vol. 72, p. 5135, 1975). Tester strains TA-100, TA-98, TA-1537 and the plate test method were used, employing concentrations of 10, 100, 1000, and 10,000 […]. The metabolic activation mixture (S-9 mix) used the 9000 times g supernatant of Arochlor-1254-induced rat liver homogenate at a level of 100 μl per ml of S-9 mix.

flies (family Muscidae) [4] = experiment: Chemosterilancy tests (egg hatch and pupal development; Examples 6-9); type: in vivo
Experimental: (§2) The compound to be tested was administered in a standard fly food containing 6 parts of sugar, 6 parts of powdered non-fat dry milk, and 1 part of powdered egg yolk. Treated food was prepared by mixing an appropriate amount of a solution or suspension of CBCP in acetone with a batch of the food. The acetone was evaporated (4-6 hours) and the dry material was repulverized.
Chemosterilancy tests: If eggs were laid in the above tests, the cups were filled with water and stirred to break up the egg masses. A random sample of 100 eggs from each cup was collected and placed on a small piece of black cloth which was then laid on top of moist larva-rearing medium in a rearing container. Observations were made to determine percentage of egg hatch and pupal development.
The procedure outlined in Example 6 was followed using a Group II compound.
The procedure outlined in Example 6 was followed using Group III compounds. The results are summarized below:
The procedure outlined in Example 6 was followed substituting a Group IV compound for those of Group I. The table below provides a summary of results.

[5] = tested on: male flies (family Muscidae); experiment: Sterilization of treated males crossed with virgin untreated females; type: in vivo
Experimental: as §2
These flies were maintained on untreated fly food. After 5 days, cups containing the larval-rearing medium was provided as previously described and a 100-egg sample was collected and place on moist larve-rearing medium. About a week after oviposition, examination was made to determine the percentage of hatched eggs and of pupae developed.

| SMILES | solubility in water (Solubility in water) | GI-90 (concentration of growth inhibitor that would prevent and/or retard growth in 90% of the treated larvae) [1] | Inhibition of embryogenesis (screwworm flies; 0.10% in food) | Oviposition (screwworm flies; 0.10% in food) | Survival, Female (screwworm flies; 0.10% in food) | Survival, Male (screwworm flies; 0.10% in food) | oral toxicity (in words) (mice) | Mortality, parent generation (flies (family Muscidae) [2]; 0.01% in food) | Mortality, parent generation (flies (family Muscidae) [2]; 0.025% in food) | Mortality, parent generation (flies (family Muscidae) [2]; 0.05% in food) | Mortality, parent generation (flies (family Muscidae) [2]; 0.1% in food) | Mortality, parent generation (flies (family Muscidae) [2]; 0.25% in food) | mutagenic activity [3] | Egg hatch (flies (family Muscidae) [4]; 0.01% in food) | Pupal development (flies (family Muscidae) [4]; 0.01% in food) | Egg hatch (flies (family Muscidae) [4]; 0.025% in food) | Pupal development (flies (family Muscidae) [4]; 0.025% in food) | Egg hatch (flies (family Muscidae) [4]; 0.25% in food) | Pupal development (flies (family Muscidae) [4]; 0.25% in food) | Mortality, parent generation (flies (family Muscidae) [2]; 1.0% in food) | further results |
| --- | --- | --- | --- | --- | --- | --- | --- | --- | --- | --- | --- | --- | --- | --- | --- | --- | --- | --- | --- | --- | --- |
| CC(c1ccccc1)c1cc(C(C)(C)C)cc(C(C)(C)C)c1O (stereo not drawn) [A, 4,6-Di-t-butyl-2-α-methylbenzylphenol] | low solubility in water | 0.039 ppm | 100% | 90.0% | 68.0% | 47.0% | only slightly toxic | 0% | 0% | 0% | 0% | 0% | non-mutagenic | 39% | 39% | 28% | 28% | 0% | 0% | – | Inhibition of embryogenesis (screwworm flies; 0.01% in food): 100%; Oviposition (screwworm flies; 0.01% in food): 63.3%; Survival, Female (screwworm flies; 0.01% in food): 71.3%; Survival, Male (screwworm flies; 0.01% in food): 54.0%; LD50 (Oral toxicity in mice): 2510 mg/kg; Egg hatch (flies (family Muscidae) [4]; 0.05% in food): 0%; Pupal development (flies (family Muscidae) [4]; 0.05% in food): 0%; Egg hatch (flies (family Muscidae) [4]; 0.1% in food): 0%; Pupal development (flies (family Muscidae) [4]; 0.1% in food): 0% |
| COc1ccc(C(C)c2cc(C(C)(C)C)cc(C(C)(C)C)c2O)cc1 (stereo not drawn) [B, 4,6-di-t-butyl-2-(α-methyl-4-methoxybenzyl)phenol] | – | – | – | – | – | – | only slightly toxic | – | – | – | – | 0% | non-mutagenic | – | – | – | – | 18% | 18% | 0% | LD50 (Oral toxicity in mice): 3550 mg/kg; Mortality, parent generation (flies (family Muscidae) [2]; 0.5% in food): 0%; Egg hatch (flies (family Muscidae) [4]; 0.5% in food): 0%; Pupal development (flies (family Muscidae) [4]; 0.5% in food): 0%; Egg hatch (flies (family Muscidae) [4]; 1.0% in food): 0%; Pupal development (flies (family Muscidae) [4]; 1.0% in food): 0% |
| COc1ccc(Cc2cc(C(C)(C)C)cc(C(C)(C)C)c2O)cc1 [C, 4,6-Di-t-butyl-2-(4-methoxybenzyl)phenol] | low solubility in water | – | 100% | 75.0% | 66.0% | 63.0% | – | 0% | 0% | 0% | 0% | 0% | – | 45% | 45% | 0% | 0% | 0% | 0% | 0% | Oviposition (flies (family Muscidae) [2]; 0.25% in food): Normal; Mortality, parent generation (flies (family Muscidae) [2]; 0.5% in food): 0%; Oviposition (flies (family Muscidae) [2]; 0.5% in food): None; Oviposition (flies (family Muscidae) [2]; 1.0% in food): None; sterilization of males ([5]; 0.25% in food): 100%; Egg hatch (flies (family Muscidae) [4]; 0.05% in food): 0%; Pupal development (flies (family Muscidae) [4]; 0.05% in food): 0%; Egg hatch (flies (family Muscidae) [4]; 0.1% in food): 0%; Pupal development (flies (family Muscidae) [4]; 0.1% in food): 0% |
| C=CCc1cc2c(cc1Cc1ccc(OC)cc1)OCO2 [CC, (4-Methoxybenzyl)-3,4-methylenedioxy-6-(2-propenyl)benzene] | low solubility in water | 0.2 ppm | 100% | 65.0% | 92.7% | 45.0% | – | 0% | 0% | 0% | 0% | 50% | non-mutagenic | 15% | 15% | 0% | 0% | – | – | – | – |
| CCCOc1cc2c(cc1C(C)c1ccc(OC)cc1)OCO2 (stereo not drawn) [I, (α-Methyl-4-methoxybenzyl)-3,4-methylenedioxy-6-n-propoxybenzene] | – | 0.042 ppm | – | – | – | – | – | 0% | 0% | – | – | – | – | 63% | 63% | 38% | 38% | – | – | 0% | sterilization of males ([5]; 1.0% in food): 100% |
